Experimental data published in patent publication US20230045421A1 (priority 2018, published 2023).
Like-named read-outs stand apart in the source and are kept apart here.

Tested on: HBV rcDNA
Test: HepDE19 assay with bDNA quantitation of HBV rcDNA
Type: cell-based, hepatitis B virus
Conditions: inhibition of formation of rcDNA, read-out: DE-19bDNA EC50
Outline: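 HepDE19 cells (HepG2-derived, Tet-regulated HBV replication) were deprived of tetracycline and then exposed to compounds for 7 days at 37 °C in 0.5% DMSO, 8-point titration from 25 μM. rcDNA was quantified by bDNA and EC50/EC90 came from 4-parameter fits. CC50 was measured by CellTiter-Glo ATP content on replicate plates after 4 days.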

[1] = Hepatitis B virus, HepDE19, HepDE19 assay

Q: With `CC(c1cnc(NCc2nc[nH]n2)c2ccccc12)N(C)C(=O)Nc1ccc(F)c(Cl)c1` (single isomer, unassigned) [Compound 248, 1-(1-(1-(((1H-1,2,4-Triazol-3-yl)methyl)amino)isoquinolin-4-yl)ethyl)-3-(3-chloro-4-fluorophenyl)-1-methylurea] as the compound, how does the EC50 (HepDE19 assay) read?
A: 9.1 µM

Q: `CC(c1cnc(NCCN)c2ccccc12)N(C)C(=O)Nc1ccc(F)c(Cl)c1` (single isomer, unassigned) [Compound 249, 1-(1-(1-((2-Aminoethyl)amino)isoquinolin-4-yl)ethyl)-3-(3-chloro-4-fluorophenyl)-1-methylurea] was tested. Which EC50 (HepDE19 assay) did it give?
A: 14 µM

Q: Which EC50 (HepDE19 assay) does the source give for `CC(c1cnc(NCCN)c2ccccc12)N(C)C(=O)Nc1ccc(F)c(Cl)c1` (single isomer, unassigned) [Compound 250, 1-(1-(1-((2-Aminoethyl)amino)isoquinolin-4-yl)ethyl)-3-(3-chloro-4-fluorophenyl)-1-methylurea] here?
A: 1.5 µM

Q: Which EC50 (HepDE19 assay) does the source give for `CC(c1c[nH]c(=O)c2cnccc12)N(CCCO)C(=O)Nc1ccc(F)c(Cl)c1` (single isomer, unassigned) [Compound 251, 3-(3-Chloro-4-fluorophenyl)-1-(3-hydroxypropyl)-1-(1-(1-oxo-1,2-dihydro-2,7-naphthyridin-4-yl)ethyl)urea] here?
A: 15 µM

Q: With `CC(c1c[nH]c(=O)c2cnccc12)N(CCCO)C(=O)Nc1ccc(F)c(Cl)c1` (single isomer, unassigned) [Compound 252, 3-(3-Chloro-4-fluorophenyl)-1-(3-hydroxypropyl)-1-(1-(1-oxo-1,2-dihydro-2,7-naphthyridin-4-yl)ethyl)urea] as the compound, how does the EC50 (HepDE19 assay) read?
A: 0.052 µM

Q: Which EC50 (HepDE19 assay) does the source give for `CC(C)CN(C(=O)Nc1ccc(F)c(Cl)c1)C(C)c1c[nH]c(=O)c2cnccc12` (single isomer, unassigned) [Compound 253, 3-(3-Chloro-4-fluorophenyl)-1-isobutyl-1-(1-(1-oxo-1,2-dihydro-2,7-naphthyridin-4-yl)ethyl)urea] here?
A: 1.4 µM

Q: With `CC(C)CN(C(=O)Nc1ccc(F)c(Cl)c1)C(C)c1c[nH]c(=O)c2cnccc12` (single isomer, unassigned) [Compound 254, 3-(3-Chloro-4-fluorophenyl)-1-isobutyl-1-(1-(1-oxo-1,2-dihydro-2,7-naphthyridin-4-yl)ethyl)urea] as the compound, how does the EC50 (HepDE19 assay) read?
A: 0.016 µM

Q: Which EC50 (HepDE19 assay) does the source give for `CC(c1cnc(OCc2ncn(C)n2)c2ccccc12)N(CCCO)C(=O)Nc1ccc(F)c(Cl)c1` (single isomer, unassigned) [Compound 255, 3-(3-Chloro-4-fluorophenyl)-1-(3-hydroxypropyl)-1-(1-(1-((1-methyl-1H-1,2,4-triazol-3-yl)methoxy)isoquinolin-4-yl)ethyl)urea] here?
A: 5.1 µM

Q: Which EC50 (HepDE19 assay) does the source give for `CC(c1cnc(OCc2ncn(C)n2)c2ccccc12)N(CCCO)C(=O)Nc1ccc(F)c(Cl)c1` (single isomer, unassigned) [Compound 256, 3-(3-Chloro-4-fluorophenyl)-1-(3-hydroxypropyl)-1-(1-(1-((1-methyl-1H-1,2,4-triazol-3-yl)methoxy)isoquinolin-4-yl)ethyl)urea] here?
A: 0.013 µM

Q: How did the EC50 (HepDE19 assay) turn out when `CC(c1cnc(OCc2nc[nH]n2)c2ccccc12)N(CCCO)C(=O)Nc1ccc(F)c(Cl)c1` (single isomer, unassigned) [Compound 259, 1-(1-(1-((1H-1,2,4-Triazol-3-yl)methoxy)isoquinolin-4-yl)ethyl)-3-(3-chloro-4-fluorophenyl)-1-(3-hydroxypropyl)urea] was run?
A: 2.1 µM

Q: Which EC50 (HepDE19 assay) does the source give for `CC(c1cnc(OCc2nc[nH]n2)c2ccccc12)N(CCCO)C(=O)Nc1ccc(F)c(Cl)c1` (single isomer, unassigned) [Compound 260, 1-(1-(1-((1H-1,2,4-Triazol-3-yl)methoxy)isoquinolin-4-yl)ethyl)-3-(3-chloro-4-fluorophenyl)-1-(3-hydroxypropyl)urea] here?
A: 0.019 µM

Q: Which EC50 (HepDE19 assay) does the source give for `CC(c1cnc(NCc2cn[nH]n2)c2ccccc12)N(C)C(=O)Nc1ccc(F)c(Cl)c1` (single isomer, unassigned) [Compound 261, 1-(1-(1-(((2H-1,2,3-Triazol-4-yl)methyl)amino)isoquinolin-4-yl)ethyl)-3-(3-chloro-4-fluorophenyl)-1-methylurea] here?
A: 6.1 µM

Q: Which EC50 (HepDE19 assay) does the source give for `CC(c1cnc(NCc2cn[nH]n2)c2ccccc12)N(C)C(=O)Nc1ccc(F)c(Cl)c1` (single isomer, unassigned) [Compound 262, 1-(1-(1-(((2H-1,2,3-Triazol-4-yl)methyl)amino)isoquinolin-4-yl)ethyl)-3-(3-chloro-4-fluorophenyl)-1-methylurea] here?
A: 0.15 µM

Q: For `CC(c1c[nH]c(=O)c2cc(F)ccc12)N(C)C(=O)Nc1ccc(F)c(Cl)c1` (single isomer, unassigned) [Compound 263, 3-(3-Chloro-4-fluorophenyl)-1-(1-(7-fluoro-1-oxo-1,2-dihydroisoquinolin-4-yl)ethyl)-1-methylurea], which EC50 (HepDE19 assay) is on record?
A: 0.78 µM

Q: With `CC(c1c[nH]c(=O)c2cc(F)ccc12)N(C)C(=O)Nc1ccc(F)c(Cl)c1` (single isomer, unassigned) [Compound 264, 3-(3-Chloro-4-fluorophenyl)-1-(1-(7-fluoro-1-oxo-1,2-dihydroisoquinolin-4-yl)ethyl)-1-methylurea] as the compound, how does the EC50 (HepDE19 assay) read?
A: 0.019 µM

Q: With `COc1cccc2c(=O)[nH]cc(C(C)N(C)C(=O)Nc3ccc(F)c(Cl)c3)c12` (single isomer, unassigned) [Compound 265, 3-(3-chloro-4-fluorophenyl)-1-(1-(5-methoxy-1-oxo-1,2-dihydroisoquinolin-4-yl)ethyl)-1-methylurea] as the compound, how does the EC50 [1] read?
A: 1.5 µM

Q: `CC(c1c[nH]c(=O)c2ccccc12)N(Cc1c[nH]nn1)C(=O)Nc1ccc(F)c(Cl)c1` (single isomer, unassigned) [Compound 266, 1-((2H-1,2,3-Triazol-4-yl)methyl)-3-(3-chloro-4-fluorophenyl)-1-(1-(1-oxo-1,2-dihydroisoquinolin-4-yl)ethyl)urea] was tested. Which EC50 (HepDE19 assay) did it give?
A: 12 µM

Q: `CC(c1c[nH]c(=O)c2ccccc12)N(Cc1c[nH]nn1)C(=O)Nc1ccc(F)c(Cl)c1` (single isomer, unassigned) [Compound 267, 1-((2H-1,2,3-Triazol-4-yl)methyl)-3-(3-chloro-4-fluorophenyl)-1-(1-(1-oxo-1,2-dihydroisoquinolin-4-yl)ethyl)urea] was tested. Which EC50 (HepDE19 assay) did it give?
A: 0.35 µM

Q: `CC(c1c[nH]c(=O)c2ccccc12)N(Cc1nnc[nH]1)C(=O)Nc1ccc(F)c(Cl)c1` (single isomer, unassigned) [Compound 268, 1-((1H-1,2,4-Triazol-5-yl)methyl)-3-(3-chloro-4-fluorophenyl)-1-(1-(1-oxo-1,2-dihydroisoquinolin-4-yl)ethyl)urea] was tested. Which EC50 [1] did it give?
A: 2.6 µM

Q: With `CC(c1cn(Cc2nc[nH]n2)c(=O)c2ccccc12)N(C)C(=O)Nc1ccc(F)c(Cl)c1` (single isomer, unassigned) [Compound 269, 1-(1-(2-((1H-1,2,4-Triazol-3-yl)methyl)-1-oxo-1,2-dihydroisoquinolin-4-yl)ethyl)-3-(3-chloro-4-fluorophenyl)-1-methylurea] as the compound, how does the EC50 (HepDE19 assay) read?
A: 0.56 µM

Q: With `CC(c1cn(Cc2nc[nH]n2)c(=O)c2ccccc12)N(C)C(=O)Nc1ccc(F)c(Cl)c1` (single isomer, unassigned) [Compound 270, 1-(1-(2-((1H-1,2,4-Triazol-3-yl)methyl)-1-oxo-1,2-dihydroisoquinolin-4-yl)ethyl)-3-(3-chloro-4-fluorophenyl)-1-methylurea] as the compound, how does the EC50 (HepDE19 assay) read?
A: 22 µM
